Laboratory results published in ChEMBL document CHEMBL1764947, “Symmetric double-headed aminopyridines, a novel strategy for potent and membrane-permeable inhibitors of neuronal nitric oxide synthase” (J Med Chem, 2011).

Assays:
[1] = Selectivity ratio of Ki for murine macrophage recombinant iNOS to Ki for rat recombinant nNOS
[2] = Selectivity ratio of Ki for bovine recombinant eNOS to Ki for rat recombinant nNOS
Nitric oxide synthase 1 = Nitric oxide synthase 1 (Rattus norvegicus, UniProt P29476); test: Inhibition of rat recombinant nNOS expressed in Escherichia coli by UV-vis spectrometric analysis
Chain of Nitric oxide synthase 1 (P29476 whole entry): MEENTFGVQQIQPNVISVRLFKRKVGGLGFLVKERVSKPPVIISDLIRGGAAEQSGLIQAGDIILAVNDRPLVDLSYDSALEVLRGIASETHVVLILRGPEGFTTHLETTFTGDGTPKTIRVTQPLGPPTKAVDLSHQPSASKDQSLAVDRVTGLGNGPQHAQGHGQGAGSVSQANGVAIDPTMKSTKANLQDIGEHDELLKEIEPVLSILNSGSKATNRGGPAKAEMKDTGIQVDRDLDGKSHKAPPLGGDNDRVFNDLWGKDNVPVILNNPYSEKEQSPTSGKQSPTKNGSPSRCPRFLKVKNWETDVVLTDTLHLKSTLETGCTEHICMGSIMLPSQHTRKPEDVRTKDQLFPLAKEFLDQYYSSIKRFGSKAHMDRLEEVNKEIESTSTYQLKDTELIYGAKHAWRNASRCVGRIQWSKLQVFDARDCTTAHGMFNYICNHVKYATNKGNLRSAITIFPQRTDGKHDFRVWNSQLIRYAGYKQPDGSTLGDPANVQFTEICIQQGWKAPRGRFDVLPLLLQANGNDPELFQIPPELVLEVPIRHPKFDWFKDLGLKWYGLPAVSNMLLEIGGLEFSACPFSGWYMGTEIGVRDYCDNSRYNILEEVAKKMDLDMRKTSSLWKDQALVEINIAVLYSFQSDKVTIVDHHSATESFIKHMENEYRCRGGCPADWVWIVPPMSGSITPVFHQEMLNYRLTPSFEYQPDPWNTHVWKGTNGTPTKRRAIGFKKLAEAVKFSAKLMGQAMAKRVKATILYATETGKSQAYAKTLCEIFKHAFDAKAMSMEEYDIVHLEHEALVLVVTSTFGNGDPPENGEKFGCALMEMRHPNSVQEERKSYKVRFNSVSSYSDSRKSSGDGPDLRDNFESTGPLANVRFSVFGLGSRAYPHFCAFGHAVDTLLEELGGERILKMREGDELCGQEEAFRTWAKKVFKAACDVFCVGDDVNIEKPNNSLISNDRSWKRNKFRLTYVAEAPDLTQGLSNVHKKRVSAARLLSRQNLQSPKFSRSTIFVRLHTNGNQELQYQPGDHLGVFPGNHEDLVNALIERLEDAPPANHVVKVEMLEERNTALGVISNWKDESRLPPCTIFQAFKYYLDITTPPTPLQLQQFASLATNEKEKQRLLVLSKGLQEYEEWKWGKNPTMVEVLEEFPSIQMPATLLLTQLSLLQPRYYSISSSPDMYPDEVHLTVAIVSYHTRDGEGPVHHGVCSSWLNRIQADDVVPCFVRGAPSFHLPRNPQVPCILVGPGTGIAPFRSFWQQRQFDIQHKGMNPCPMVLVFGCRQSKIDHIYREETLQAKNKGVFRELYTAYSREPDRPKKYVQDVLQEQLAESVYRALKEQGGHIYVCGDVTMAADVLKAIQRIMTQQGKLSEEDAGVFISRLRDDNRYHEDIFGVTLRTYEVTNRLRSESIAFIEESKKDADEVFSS

[3] = molecular target: T1, Nitric oxide synthase, inducible (Mus musculus, UniProt P29477); test: Inhibition of mouse macrophage recombinant iNOS expressed in Escherichia coli by UV-vis spectrometric analysis
T1 sequence (P29477 whole entry): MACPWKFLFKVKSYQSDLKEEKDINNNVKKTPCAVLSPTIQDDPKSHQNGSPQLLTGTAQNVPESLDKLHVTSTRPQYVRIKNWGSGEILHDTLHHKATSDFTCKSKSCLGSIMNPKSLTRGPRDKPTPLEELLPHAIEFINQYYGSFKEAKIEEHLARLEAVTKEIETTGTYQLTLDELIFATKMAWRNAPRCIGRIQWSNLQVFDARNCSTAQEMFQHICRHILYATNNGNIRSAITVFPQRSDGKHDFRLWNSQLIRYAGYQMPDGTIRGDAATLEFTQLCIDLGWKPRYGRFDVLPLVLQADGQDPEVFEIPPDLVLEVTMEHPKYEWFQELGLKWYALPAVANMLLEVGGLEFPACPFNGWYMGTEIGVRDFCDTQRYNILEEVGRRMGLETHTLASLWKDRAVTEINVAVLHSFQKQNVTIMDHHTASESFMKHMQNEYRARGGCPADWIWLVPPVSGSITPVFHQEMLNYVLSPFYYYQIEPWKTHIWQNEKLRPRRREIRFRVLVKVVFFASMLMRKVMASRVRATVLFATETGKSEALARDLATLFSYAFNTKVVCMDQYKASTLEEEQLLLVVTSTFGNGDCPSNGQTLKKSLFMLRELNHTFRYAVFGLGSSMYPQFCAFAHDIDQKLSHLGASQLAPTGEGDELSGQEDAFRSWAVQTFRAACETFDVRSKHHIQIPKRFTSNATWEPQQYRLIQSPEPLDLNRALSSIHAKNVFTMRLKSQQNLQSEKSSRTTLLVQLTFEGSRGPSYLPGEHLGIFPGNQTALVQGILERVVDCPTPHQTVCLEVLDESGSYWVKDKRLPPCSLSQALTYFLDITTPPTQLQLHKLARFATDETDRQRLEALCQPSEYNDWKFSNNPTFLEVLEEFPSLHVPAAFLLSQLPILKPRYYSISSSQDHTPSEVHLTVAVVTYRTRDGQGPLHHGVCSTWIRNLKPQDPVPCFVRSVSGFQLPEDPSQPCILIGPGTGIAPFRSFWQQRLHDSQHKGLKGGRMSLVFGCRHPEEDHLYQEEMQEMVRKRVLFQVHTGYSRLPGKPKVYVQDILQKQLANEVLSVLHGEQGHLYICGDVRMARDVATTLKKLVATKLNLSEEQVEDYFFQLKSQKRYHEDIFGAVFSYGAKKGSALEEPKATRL

Nitric oxide synthase 3 = molecular target: T2, Nitric oxide synthase 3 (Bos taurus, UniProt P29473); test: Inhibition of bovine recombinant eNOS expressed in Escherichia coli by UV-vis spectrometric analysis
T2 sequence (P29473 whole entry): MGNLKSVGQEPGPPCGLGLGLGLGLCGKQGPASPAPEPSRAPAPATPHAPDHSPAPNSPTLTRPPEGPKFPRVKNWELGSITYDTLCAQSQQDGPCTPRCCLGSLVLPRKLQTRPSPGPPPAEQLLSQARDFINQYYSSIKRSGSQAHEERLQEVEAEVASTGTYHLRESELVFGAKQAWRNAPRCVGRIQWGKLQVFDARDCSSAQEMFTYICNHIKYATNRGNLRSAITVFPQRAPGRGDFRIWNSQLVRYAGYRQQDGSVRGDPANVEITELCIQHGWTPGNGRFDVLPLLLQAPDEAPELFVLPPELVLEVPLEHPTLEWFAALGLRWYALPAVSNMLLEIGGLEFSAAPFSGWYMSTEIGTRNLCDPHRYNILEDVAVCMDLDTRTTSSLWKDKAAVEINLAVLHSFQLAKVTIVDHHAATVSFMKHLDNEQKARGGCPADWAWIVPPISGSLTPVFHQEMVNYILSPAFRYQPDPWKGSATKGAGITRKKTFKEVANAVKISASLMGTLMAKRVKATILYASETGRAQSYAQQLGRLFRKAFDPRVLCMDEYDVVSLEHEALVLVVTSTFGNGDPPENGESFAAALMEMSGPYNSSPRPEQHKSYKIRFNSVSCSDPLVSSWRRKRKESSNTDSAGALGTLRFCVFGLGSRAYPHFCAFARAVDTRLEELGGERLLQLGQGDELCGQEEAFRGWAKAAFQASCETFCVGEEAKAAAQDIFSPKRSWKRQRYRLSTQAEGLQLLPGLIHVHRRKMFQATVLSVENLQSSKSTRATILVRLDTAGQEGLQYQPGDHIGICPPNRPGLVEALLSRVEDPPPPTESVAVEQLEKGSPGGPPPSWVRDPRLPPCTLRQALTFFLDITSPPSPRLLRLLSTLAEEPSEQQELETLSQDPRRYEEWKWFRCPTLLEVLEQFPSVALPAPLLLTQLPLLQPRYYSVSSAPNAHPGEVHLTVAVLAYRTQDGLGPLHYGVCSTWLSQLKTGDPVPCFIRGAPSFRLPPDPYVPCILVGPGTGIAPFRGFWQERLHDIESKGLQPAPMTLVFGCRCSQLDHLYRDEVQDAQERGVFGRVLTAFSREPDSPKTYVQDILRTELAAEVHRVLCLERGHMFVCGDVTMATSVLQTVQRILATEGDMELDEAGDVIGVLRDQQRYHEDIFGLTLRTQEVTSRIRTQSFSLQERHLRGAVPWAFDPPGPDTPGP

Ki (Nitric oxide synthase 1) [µM] | Structure (SMILES) | Ratio Ki [1] | Ratio Ki [2] | Ki [3] [µM] | Ki (Nitric oxide synthase 3) [µM]
> 1 | Cc1cc(C)nc(NCc2ccc3cc(CNc4cc(C)cc(C)n4)ccc3c2)c1 | – | – | – | –
> 1 | Cc1cc(N)nc(CCc2ccc3ccc(CCc4cc(C)nc(N)c4)cc3c2)c1 | – | – | – | –
> 1 | Cc1cc(CCc2cccc(CCc3cc(C)nc(N)c3)c2)cc(N)n1 | – | – | – | –

Second part, the compound before the results:

Structure (SMILES) | Ki (Nitric oxide synthase 1) [µM] | Ratio Ki [1] | Ratio Ki [2] | Ki [3] [µM] | Ki (Nitric oxide synthase 3) [µM]
Cc1cc(N)nc(CCc2ccc(CCc3cc(C)cc(N)n3)cc2)c1 | – | 24.8 | 24.6 | – | –
Cc1cc(N)nc(CCc2ccc3cc(CCc4cc(C)cc(N)n4)ccc3c2)c1 | – | 9.42 | 7.22 | – | –
Cc1cc(N)nc(CCc2cccc(CCc3cc(C)cc(N)n3)n2)c1 | – | 48 | 95 | – | –
Cc1cc(N)nc(CCc2cccc(CCc3cc(C)nc(N)c3)n2)c1 | 0.195 | – | – | 12.6 | 20
Cc1cc(N)nc(CCc2ccc3ccc(CCc4cc(C)cc(N)n4)cc3c2)c1 | – | 20.1 | 14.9 | – | –
Cc1cc(N)nc(CCc2cc(N)cc(CCc3cc(C)cc(N)n3)c2)c1 | 0.085 | 40 | 58 | 3.4 | 4.95
Cc1cc(N)nc(CCc2cccc(CCc3cc(C)nc(N)c3)c2)c1 | – | 71.8 | 111 | – | –
Cc1cc(N)nc(CCc2cncc(CCc3cc(C)nc(N)c3)c2)c1 | – | 19 | 156 | – | –
